Test results as given in ChEMBL document CHEMBL1201862, “PubChem BioAssay data set” (2004).
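Cells were grown in 96-well plates and exposed to each compound for 48 hours at five concentrations; endpoints were interpolated linearly between bracketing concentrations, or set to the highest concentration if not reached. GI50: concentration for 50% inhibition of growth.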 Calls of active or inactive are those of the source. No stated cut-off is given here; in the data, active = GI50 up to about 1.1 µM and inactive = higher. *1 amine or outer side, *2 acyl side, *3 side chain or, on linkers, in order; H or OH if unused. Where a SMILES comes first, the peptide text is derived from it. Square brackets hold non-standard residues; d marks the D form. Peptide text beside a SMILES is read from it. [ ]: non-standard residue; d: D form. The star is where a group is joined. * marks the point of attachment. ξ: configuration not given here. NMeY = CN[C@@H](Cc1ccc(O)cc1)C(=O)O; Ethylenediamine = C(CN[*:2])N[*:1]; ξNMeL = CNC(CC(C)C)C(=O)O; Cbz = O=C(OCc1ccccc1)*; Lac = C[C@H](O)C(=O)O; ξA = CC(N)C(=O)O

How the values were obtained:
Experiment in all cases: growth of human tumour cells (NCI), 48 h
M14 = tested on: M14
RPMI-8226 = tested on: RPMI-8226
UACC-62 = tested on: UACC-62
EKVX = tested on: EKVX
SF-268 = tested on: SF-268
SNB-75 = tested on: SNB-75
HCT-116 = tested on: HCT-116
HL-60 = tested on: HL-60
SF-539 = tested on: SF-539
NCI-H460 = tested on: NCI-H460
KM12 = tested on: KM12
MOLT-4 = tested on: MOLT-4
SK-MEL-28 = tested on: SK-MEL-28
SNB-19 = tested on: SNB-19
CAKI-1 = tested on: CAKI-1
SW-620 = tested on: SW-620
UO-31 = tested on: UO-31
Malme-3M = tested on: Malme-3M
A549 = tested on: A549
PC-3 = tested on: PC-3

Compound	GI50 (M14)	GI50 (RPMI-8226)	GI50 (UACC-62)	GI50 (EKVX)	GI50 (SF-268)	GI50 (SNB-75)	GI50 (HCT-116)	GI50 (HL-60)	GI50 (SF-539)	GI50 (NCI-H460)	GI50 (KM12)	GI50 (MOLT-4)	GI50 (SK-MEL-28)	GI50 (SNB-19)	GI50 (CAKI-1)	GI50 (SW-620)	GI50 (UO-31)	GI50 (Malme-3M)	GI50 (A549)	GI50 (PC-3)
NC(=O)C1CCCNC1 (stereo not given)	> 100 µM (inactive)	> 100 µM (inactive)	> 100 µM (inactive)	> 100 µM (inactive)	> 100 µM (inactive)	> 100 µM (inactive)	> 100 µM (inactive)	> 100 µM (inactive)	> 100 µM (inactive)	> 100 µM (inactive)	> 100 µM (inactive)	24.3 µM (inactive)	> 100 µM (inactive)	> 100 µM (inactive)	> 100 µM (inactive)	> 100 µM (inactive)	> 100 µM (inactive)	> 100 µM (inactive)	> 100 µM (inactive)	> 100 µM (inactive)
Cc1nc(-c2ccccc2)c(C)n2c1nc1ccccc12	20.3 µM (inactive)	14.2 µM (inactive)	19.3 µM (inactive)	37.2 µM (inactive)	22.1 µM (inactive)	26.7 µM (inactive)	31.5 µM (inactive)	16.5 µM (inactive)	35.6 µM (inactive)	23.8 µM (inactive)	36.8 µM (inactive)	27.5 µM (inactive)	39.4 µM (inactive)	35.6 µM (inactive)	34.7 µM (inactive)	33 µM (inactive)	14.7 µM (inactive)	31.4 µM (inactive)	34.2 µM (inactive)	29.9 µM (inactive)
CN(CCc1ccccn1)C(=S)N/N=C/c1ccccn1	< 0.0226 µM (active)	< 0.01 µM (active)	0.195 µM (active)	0.102 µM (active)	0.248 µM (active)	7.5 µM (inactive)	< 0.01 µM (active)	< 0.01 µM (active)	0.0935 µM (active)	0.299 µM (active)	0.0719 µM (active)	< 0.01 µM (active)	0.442 µM (active)	4.69 µM (inactive)	< 0.01 µM (active)	0.0916 µM (active)	0.139 µM (active)	0.182 µM (active)	0.285 µM (active)	0.0456 µM (active)
O=C1/C(=C/c2ccc(O)cc2)CCC1CNc1ccccc1 (stereo not given)	12.2 µM (inactive)	1.15 µM (inactive)	13.1 µM (inactive)	18.3 µM (inactive)	14.8 µM (inactive)	26.2 µM (inactive)	5.64 µM (inactive)	1.96 µM (inactive)	16.1 µM (inactive)	26.3 µM (inactive)	6.65 µM (inactive)	1.85 µM (inactive)	15.4 µM (inactive)	16.3 µM (inactive)	12.5 µM (inactive)	2.54 µM (inactive)	15.6 µM (inactive)	15.3 µM (inactive)	17.8 µM (inactive)	11.2 µM (inactive)
C/C(=N\Nc1nc2ccccc2[nH]1)c1ncccn1	0.0417 µM (active)	0.0585 µM (active)	0.0693 µM (active)	0.026 µM (active)	0.0382 µM (active)	0.119 µM (active)	0.0226 µM (active)	< 0.01 µM (active)	0.0172 µM (active)	0.0299 µM (active)	0.136 µM (active)	< 0.01 µM (active)	0.0948 µM (active)	0.0879 µM (active)	< 0.0224 µM (active)	0.0344 µM (active)	< 0.0202 µM (active)	< 0.0243 µM (active)	0.0682 µM (active)	1.92 µM (inactive)
CC1=C(N2CC2)C(=O)c2nc3n(c2C1=O)CCC3OC(=O)CCl (stereo not given)	0.0361 µM (active)	0.0955 µM (active)	0.0356 µM (active)	0.217 µM (active)	0.0498 µM (active)	0.0221 µM (active)	0.0418 µM (active)	0.206 µM (active)	0.056 µM (active)	0.0183 µM (active)	0.0377 µM (active)	0.753 µM (active)	0.0555 µM (active)	0.0538 µM (active)	0.0615 µM (active)	0.0316 µM (active)	0.0483 µM (active)	0.0453 µM (active)	0.0593 µM (active)	0.0214 µM (active)
COc1ccc(C[C@@H](C(=O)NCCNC(=O)C(CC(C)C)N(C)C(=O)[C@@H]2CCCN2C(=O)[C@H](C)O)N(C)C(=O)[C@@H]2CCCN2C(=O)[C@H](CC(C)C)NC(=O)C(C)NC(=O)OCc2ccccc2)cc1 (stereo not given in full) (Cbz-[ξA]LP[NMeY](Me)-{Ethylenediamine-ξNMeL-Pro-Lac})	> 100 µM (inactive)	33.9 µM (inactive)	96.2 µM (inactive)	> 100 µM (inactive)	> 100 µM (inactive)	89.5 µM (inactive)	> 100 µM (inactive)	38.4 µM (inactive)	> 100 µM (inactive)	> 100 µM (inactive)	> 100 µM (inactive)	29 µM (inactive)	> 100 µM (inactive)	> 100 µM (inactive)	> 100 µM (inactive)	> 100 µM (inactive)	> 100 µM (inactive)	> 100 µM (inactive)	> 100 µM (inactive)	> 100 µM (inactive)
COc1ccc(C[C@@H](C(=O)N[C@@H](C)C(N)=O)N(C)C(=O)[C@@H]2CCCN2C(=O)[C@H](CC(C)C)NC(=O)C(C)NC(=O)OCc2ccccc2)cc1 (stereo not given in full) (Cbz-[ξA]LP[NMeY](Me)A-NH2)	> 100 µM (inactive)	> 100 µM (inactive)	73.1 µM (inactive)	> 100 µM (inactive)	> 100 µM (inactive)	66.1 µM (inactive)	> 100 µM (inactive)	> 100 µM (inactive)	> 100 µM (inactive)	> 100 µM (inactive)	> 100 µM (inactive)	35.5 µM (inactive)	> 100 µM (inactive)	> 100 µM (inactive)	> 100 µM (inactive)	> 100 µM (inactive)	> 100 µM (inactive)	> 100 µM (inactive)	> 100 µM (inactive)	61.7 µM (inactive)
